Experiments:
BRSK1 = biological target: T1, BRSK1 (Homo sapiens, UniProt Q8TDC3); assay: KINOMEscan 1 μM, BRSK1; format: binding; conditions: 1000 nM; Entrez BRSK1; read-out: Percent Control
T1 construct: purchased Eurofins DiscoverX KINOMEscan
Source text: (§1) Supplement cells-12-00287-s001.zip/File S2. KinomeScan data for the CAMKK2 probe and negative control.xlsx, sheet "SGC-CAMKK2-1" | column: Percent Control

GCN2(Kin.Dom.2,S808G) = biological target: T2, GCN2(Kin.Dom.2,S808G) (Homo sapiens, UniProt Q9P2K8, S808G); assay: KINOMEscan 1 μM, GCN2(Kin.Dom.2,S808G); format: binding; conditions: 1000 nM; Entrez EIF2AK4; read-out: Percent Control
T2 construct: GCN2(Kin.Dom.2,S808G); purchased Eurofins DiscoverX KINOMEscan
Source text: as §1

MARK4 = biological target: T3, MARK4 (Homo sapiens, UniProt Q96L34); assay: KINOMEscan 1 μM, MARK4; format: binding; conditions: 1000 nM; Entrez MARK4; read-out: Percent Control
T3 construct: purchased Eurofins DiscoverX KINOMEscan
Source text: as §1

[1] = biological target: T4, ABL1(F317L)-nonphosphorylated (Homo sapiens, UniProt P00519, F317L); assay: KINOMEscan 1 μM, ABL1(F317L)-nonphosphorylated; format: binding; conditions: 1000 nM; Entrez ABL1; read-out: Percent Control
T4 construct: purchased Eurofins DiscoverX KINOMEscan
Source text: as §1

CLK3 = biological target: T5, CLK3 (Homo sapiens, UniProt P49761); assay: KINOMEscan 1 μM, CLK3; format: binding; conditions: 1000 nM; Entrez CLK3; read-out: Percent Control
T5 construct: purchased Eurofins DiscoverX KINOMEscan
T5 sequence (P49761 whole entry): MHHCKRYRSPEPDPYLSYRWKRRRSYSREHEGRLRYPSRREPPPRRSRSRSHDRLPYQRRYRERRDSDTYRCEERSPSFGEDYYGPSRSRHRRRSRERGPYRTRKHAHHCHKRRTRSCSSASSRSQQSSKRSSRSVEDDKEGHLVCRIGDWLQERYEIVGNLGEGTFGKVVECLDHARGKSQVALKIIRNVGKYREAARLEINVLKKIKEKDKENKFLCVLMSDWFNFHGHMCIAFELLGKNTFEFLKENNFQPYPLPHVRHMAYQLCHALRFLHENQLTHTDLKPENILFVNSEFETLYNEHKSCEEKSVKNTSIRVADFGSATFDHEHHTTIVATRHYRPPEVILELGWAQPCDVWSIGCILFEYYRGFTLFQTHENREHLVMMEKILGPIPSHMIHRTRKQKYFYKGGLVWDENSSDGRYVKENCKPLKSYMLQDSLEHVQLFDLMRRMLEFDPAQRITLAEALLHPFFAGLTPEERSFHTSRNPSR
Source text: as §1

EPHB1 = biological target: T6, EPHB1 (Homo sapiens, UniProt P54762); assay: KINOMEscan 1 μM, EPHB1; format: binding; conditions: 1000 nM; Entrez EPHB1; read-out: Percent Control
T6 construct: purchased Eurofins DiscoverX KINOMEscan
Source text: as §1

p38-gamma = biological target: T7, p38-gamma (Homo sapiens, UniProt P53778); assay: KINOMEscan 1 μM, p38-gamma; format: binding; conditions: 1000 nM; Entrez MAPK12; read-out: Percent Control
T7 construct: purchased Eurofins DiscoverX KINOMEscan
Source text: as §1

PIK3CB = biological target: T8, PIK3CB (Homo sapiens, UniProt P42338); assay: DiscoverX KINOMEscan binding assay at 1 μM, PIK3CB; conditions: Compound Concentration 1000 nM, read-out: Percent Control
T8 construct: purchased Eurofins DiscoverX KINOMEscan
T8 sequence (P42338 whole entry): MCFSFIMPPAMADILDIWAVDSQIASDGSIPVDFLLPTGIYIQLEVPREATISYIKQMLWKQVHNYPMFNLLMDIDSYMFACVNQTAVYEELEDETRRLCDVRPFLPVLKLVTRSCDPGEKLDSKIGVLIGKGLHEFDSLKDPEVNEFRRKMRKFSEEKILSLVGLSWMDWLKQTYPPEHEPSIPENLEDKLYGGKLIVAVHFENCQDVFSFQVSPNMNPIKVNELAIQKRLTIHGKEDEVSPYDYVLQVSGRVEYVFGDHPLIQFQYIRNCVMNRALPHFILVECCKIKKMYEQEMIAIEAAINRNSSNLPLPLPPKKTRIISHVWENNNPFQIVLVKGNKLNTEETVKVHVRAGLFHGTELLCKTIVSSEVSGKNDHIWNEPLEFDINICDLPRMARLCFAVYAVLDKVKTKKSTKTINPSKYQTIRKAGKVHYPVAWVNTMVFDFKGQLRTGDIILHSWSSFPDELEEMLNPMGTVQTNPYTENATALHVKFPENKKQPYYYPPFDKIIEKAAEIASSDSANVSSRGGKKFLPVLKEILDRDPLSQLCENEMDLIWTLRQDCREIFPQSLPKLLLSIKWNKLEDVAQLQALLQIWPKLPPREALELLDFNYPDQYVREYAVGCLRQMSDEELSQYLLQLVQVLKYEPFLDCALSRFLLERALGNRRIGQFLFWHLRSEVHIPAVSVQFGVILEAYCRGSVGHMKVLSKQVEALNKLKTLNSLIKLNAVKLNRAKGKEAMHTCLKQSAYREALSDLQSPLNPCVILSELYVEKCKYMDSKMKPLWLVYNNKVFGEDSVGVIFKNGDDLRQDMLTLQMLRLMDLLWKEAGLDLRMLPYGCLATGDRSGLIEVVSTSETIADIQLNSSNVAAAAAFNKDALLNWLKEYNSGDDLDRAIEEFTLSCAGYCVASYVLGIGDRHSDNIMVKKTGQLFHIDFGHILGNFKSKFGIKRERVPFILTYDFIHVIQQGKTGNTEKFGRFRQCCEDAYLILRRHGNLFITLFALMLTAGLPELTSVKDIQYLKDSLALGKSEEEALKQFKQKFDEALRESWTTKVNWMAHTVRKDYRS
Source text: as §1

ASK1 = biological target: T9, ASK1 (Homo sapiens, UniProt Q99683); assay: KINOMEscan 1 μM, ASK1; format: binding; conditions: 1000 nM; Entrez MAP3K5; read-out: Percent Control
T9 construct: purchased Eurofins DiscoverX KINOMEscan
Source text: as §1

[2] = biological target: T10, JAK1(JH2domain-pseudokinase) (Homo sapiens, UniProt P23458); assay: KINOMEscan 1 μM, JAK1(JH2domain-pseudokinase); format: binding; conditions: 1000 nM; Entrez JAK1; read-out: Percent Control
T10 construct: JAK1(JH2domain-pseudokinase); purchased Eurofins DiscoverX KINOMEscan
Source text: as §1

CDK7 = biological target: T11, CDK7 (Homo sapiens, UniProt P50613); assay: KINOMEscan 1 μM, CDK7; format: binding; conditions: 1000 nM; Entrez CDK7; read-out: Percent Control
T11 construct: purchased Eurofins DiscoverX KINOMEscan
Source text: as §1

DLK = biological target: T12, DLK (Homo sapiens, UniProt Q12852); assay: KINOMEscan 1 μM, DLK; format: binding; conditions: 1000 nM; Entrez MAP3K12; read-out: Percent Control
T12 construct: purchased Eurofins DiscoverX KINOMEscan
T12 sequence (Q12852 whole entry): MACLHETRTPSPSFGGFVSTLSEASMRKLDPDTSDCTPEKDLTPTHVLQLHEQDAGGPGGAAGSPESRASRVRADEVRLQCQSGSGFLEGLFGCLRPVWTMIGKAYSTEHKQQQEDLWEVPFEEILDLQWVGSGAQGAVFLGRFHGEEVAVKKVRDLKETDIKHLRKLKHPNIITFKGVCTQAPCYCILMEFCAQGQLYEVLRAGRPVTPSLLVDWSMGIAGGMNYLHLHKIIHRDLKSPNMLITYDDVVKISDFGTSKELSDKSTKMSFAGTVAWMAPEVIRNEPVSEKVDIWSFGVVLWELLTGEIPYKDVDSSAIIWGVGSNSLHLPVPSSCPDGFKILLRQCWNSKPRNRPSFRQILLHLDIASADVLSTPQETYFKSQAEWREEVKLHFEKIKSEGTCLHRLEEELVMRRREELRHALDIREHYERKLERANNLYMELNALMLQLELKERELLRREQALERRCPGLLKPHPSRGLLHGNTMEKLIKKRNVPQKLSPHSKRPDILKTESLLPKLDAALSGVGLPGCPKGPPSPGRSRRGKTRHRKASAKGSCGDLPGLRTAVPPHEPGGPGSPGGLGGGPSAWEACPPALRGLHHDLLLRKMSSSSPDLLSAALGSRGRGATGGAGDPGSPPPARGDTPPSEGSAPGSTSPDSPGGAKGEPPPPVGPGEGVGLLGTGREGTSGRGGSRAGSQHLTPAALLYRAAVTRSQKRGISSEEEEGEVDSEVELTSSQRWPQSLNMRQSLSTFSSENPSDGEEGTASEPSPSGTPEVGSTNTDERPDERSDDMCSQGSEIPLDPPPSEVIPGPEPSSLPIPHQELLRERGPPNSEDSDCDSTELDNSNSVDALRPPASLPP
Source text: as §1

ERK2 = biological target: T13, ERK2 (Homo sapiens, UniProt P28482); assay: KINOMEscan 1 μM, ERK2; format: binding; conditions: 1000 nM; Entrez MAPK1; read-out: Percent Control
T13 construct: purchased Eurofins DiscoverX KINOMEscan
Source text: as §1

MAP3K15 = biological target: T14, MAP3K15 (Homo sapiens, UniProt Q6ZN16); assay: KINOMEscan 1 μM, MAP3K15; format: binding; conditions: 1000 nM; Entrez MAP3K15; read-out: Percent Control
T14 construct: purchased Eurofins DiscoverX KINOMEscan
Source text: as §1

CAMK1 = biological target: T15, CAMK1 (Homo sapiens, UniProt Q14012); assay: KINOMEscan 1 μM, CAMK1; format: binding; conditions: 1000 nM; Entrez CAMK1; read-out: Percent Control
T15 construct: purchased Eurofins DiscoverX KINOMEscan
Source text: as §1

[3] = biological target: T16, ABL1(F317I)-phosphorylated (Homo sapiens, UniProt P00519, F317I); assay: KINOMEscan 1 μM, ABL1(F317I)-phosphorylated; format: binding; conditions: 1000 nM; Entrez ABL1; read-out: Percent Control
T16 construct: purchased Eurofins DiscoverX KINOMEscan
Source text: as §1

CASK = biological target: T17, CASK (Homo sapiens, UniProt O14936); assay: KINOMEscan at 1 μM, CASK; format: binding; conditions: 1000 nM, read-out: Percent Control
T17 construct: purchased Eurofins DiscoverX KINOMEscan
Source text: (§2) Supplement cells-12-00287-s001.zip/File S2. KinomeScan data for the CAMKK2 probe and negative control.xlsx, sheet "SGC-CAMKK2-1N" | column: Percent Control

RIPK1 = biological target: T18, RIPK1 (Homo sapiens, UniProt Q13546); assay: KINOMEscan at 1 μM, RIPK1; format: binding; conditions: 1000 nM, read-out: Percent Control
T18 construct: purchased Eurofins DiscoverX KINOMEscan
Source text: as §2

ZAP70 = biological target: T19, ZAP70 (Homo sapiens, UniProt P43403); assay: KINOMEscan at 1 μM, ZAP70; format: binding; conditions: 1000 nM, read-out: Percent Control
T19 construct: purchased Eurofins DiscoverX KINOMEscan
Source text: as §2

[4] = biological target: T20, TYK2(JH2domain-pseudokinase) (Homo sapiens, UniProt P29597); assay: KINOMEscan at 1 μM, TYK2(JH2domain-pseudokinase); format: binding; conditions: 1000 nM, read-out: Percent Control
T20 construct: TYK2(JH2domain-pseudokinase); purchased Eurofins DiscoverX KINOMEscan
Source text: as §2

PRKCQ = biological target: T21, PRKCQ (Homo sapiens, UniProt Q04759); assay: KINOMEscan binding assay at 1 μM, PRKCQ; conditions: Compound Concentration 1000 nM; read-out: Percent Control
T21 construct: purchased Eurofins DiscoverX KINOMEscan
Source text: as §2

SgK110 = biological target: T22, SgK110 (Homo sapiens, UniProt P0C264); assay: KINOMEscan at 1 μM, SgK110; format: binding; conditions: 1000 nM, read-out: Percent Control
T22 construct: purchased Eurofins DiscoverX KINOMEscan
Source text: as §2

LIMK2 = biological target: T23, LIMK2 (Homo sapiens, UniProt P53671); assay: KINOMEscan at 1 μM, LIMK2; format: binding; conditions: 1000 nM, read-out: Percent Control
T23 construct: purchased Eurofins DiscoverX KINOMEscan
Source text: as §2

CDC2L2 = biological target: T24, CDC2L2 (Homo sapiens, UniProt Q9UQ88); assay: KINOMEscan at 1 μM, CDC2L2; format: binding; conditions: 1000 nM, read-out: Percent Control
T24 construct: purchased Eurofins DiscoverX KINOMEscan
Source text: as §2

EPHA1 = biological target: T25, EPHA1 (Homo sapiens, UniProt P21709); assay: KINOMEscan at 1 μM, EPHA1; format: binding; conditions: 1000 nM, read-out: Percent Control
T25 construct: purchased Eurofins DiscoverX KINOMEscan
T25 sequence (P21709 26-976): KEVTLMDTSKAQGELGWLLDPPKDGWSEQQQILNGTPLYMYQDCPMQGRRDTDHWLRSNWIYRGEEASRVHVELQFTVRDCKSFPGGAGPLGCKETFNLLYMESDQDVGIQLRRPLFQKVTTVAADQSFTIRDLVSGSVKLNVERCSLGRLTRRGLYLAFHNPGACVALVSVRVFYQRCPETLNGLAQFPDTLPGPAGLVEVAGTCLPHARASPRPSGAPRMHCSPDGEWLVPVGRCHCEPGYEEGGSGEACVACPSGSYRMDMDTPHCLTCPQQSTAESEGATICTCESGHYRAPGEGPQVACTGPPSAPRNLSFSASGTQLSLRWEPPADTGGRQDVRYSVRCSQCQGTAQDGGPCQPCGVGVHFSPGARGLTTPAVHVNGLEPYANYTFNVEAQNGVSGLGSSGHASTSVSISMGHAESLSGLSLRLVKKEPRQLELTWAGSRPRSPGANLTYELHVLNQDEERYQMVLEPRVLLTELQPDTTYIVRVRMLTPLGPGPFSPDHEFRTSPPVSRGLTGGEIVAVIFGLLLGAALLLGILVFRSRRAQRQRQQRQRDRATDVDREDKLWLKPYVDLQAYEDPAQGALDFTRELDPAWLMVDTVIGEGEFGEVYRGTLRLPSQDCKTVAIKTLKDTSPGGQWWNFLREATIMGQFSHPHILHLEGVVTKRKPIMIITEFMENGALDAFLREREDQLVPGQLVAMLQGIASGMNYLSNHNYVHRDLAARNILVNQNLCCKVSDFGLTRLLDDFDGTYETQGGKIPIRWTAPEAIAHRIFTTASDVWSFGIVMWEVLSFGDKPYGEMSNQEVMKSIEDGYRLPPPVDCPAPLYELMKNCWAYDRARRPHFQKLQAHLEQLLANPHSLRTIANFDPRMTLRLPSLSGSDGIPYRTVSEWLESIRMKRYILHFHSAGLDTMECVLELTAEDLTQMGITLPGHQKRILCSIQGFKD
Source text: as §2

DDR2 = biological target: T26, DDR2 (Homo sapiens, UniProt Q16832); assay: KINOMEscan at 1 μM, DDR2; format: binding; conditions: 1000 nM, read-out: Percent Control
T26 construct: purchased Eurofins DiscoverX KINOMEscan
Source text: as §2

KIT-autoinhibited = biological target: T27, KIT-autoinhibited (Homo sapiens, UniProt P10721); assay: KINOMEscan at 1 μM, KIT-autoinhibited; format: binding; conditions: 1000 nM, read-out: Percent Control
T27 construct: purchased Eurofins DiscoverX KINOMEscan
T27 sequence (P10721 26-976): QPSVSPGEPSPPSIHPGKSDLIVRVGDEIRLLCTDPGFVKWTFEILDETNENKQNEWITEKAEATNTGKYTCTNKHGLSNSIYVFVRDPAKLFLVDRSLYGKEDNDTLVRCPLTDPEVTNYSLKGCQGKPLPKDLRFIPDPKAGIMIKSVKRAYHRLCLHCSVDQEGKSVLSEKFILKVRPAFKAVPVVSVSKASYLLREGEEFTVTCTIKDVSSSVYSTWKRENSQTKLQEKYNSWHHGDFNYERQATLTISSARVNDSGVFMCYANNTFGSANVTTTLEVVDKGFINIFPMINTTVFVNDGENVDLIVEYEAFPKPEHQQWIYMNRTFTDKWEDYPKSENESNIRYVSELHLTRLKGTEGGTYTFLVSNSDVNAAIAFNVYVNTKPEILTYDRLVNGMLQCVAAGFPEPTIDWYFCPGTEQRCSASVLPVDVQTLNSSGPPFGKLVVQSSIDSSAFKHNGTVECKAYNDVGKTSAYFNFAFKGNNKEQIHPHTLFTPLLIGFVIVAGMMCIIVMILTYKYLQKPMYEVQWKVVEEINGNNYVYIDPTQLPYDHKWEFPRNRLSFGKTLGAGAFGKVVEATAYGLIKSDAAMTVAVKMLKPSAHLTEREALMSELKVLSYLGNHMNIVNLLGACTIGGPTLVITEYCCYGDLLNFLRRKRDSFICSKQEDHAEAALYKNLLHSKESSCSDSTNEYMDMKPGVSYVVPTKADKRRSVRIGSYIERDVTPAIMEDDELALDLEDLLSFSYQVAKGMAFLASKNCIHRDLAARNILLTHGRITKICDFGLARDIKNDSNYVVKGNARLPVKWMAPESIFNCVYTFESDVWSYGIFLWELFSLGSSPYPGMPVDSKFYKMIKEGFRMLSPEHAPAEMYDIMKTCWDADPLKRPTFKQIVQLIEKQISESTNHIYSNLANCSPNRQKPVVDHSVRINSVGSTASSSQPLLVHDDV
Source text: as §2

KIT(L576P) = biological target: T28, KIT(L576P) (Homo sapiens, UniProt P10721, L576P); assay: KINOMEscan at 1 μM, KIT(L576P); format: binding; conditions: 1000 nM, read-out: Percent Control
T28 construct: purchased Eurofins DiscoverX KINOMEscan
T28 sequence (P10721 26-976 L576P): as the sequence (P10721 26-976) above, with L551P counted along it
Source text: as §2

MAP4K4 = biological target: T29, MAP4K4 (Homo sapiens, UniProt O95819); assay: KINOMEscan at 1 μM, MAP4K4; format: binding; conditions: 1000 nM, read-out: Percent Control
T29 construct: purchased Eurofins DiscoverX KINOMEscan
Source text: as §2

ERBB2 = biological target: T30, ERBB2 (Homo sapiens, UniProt P04626); assay: KINOMEscan binding assay at 1 μM, ERBB2; conditions: Compound Concentration 1000 nM; read-out: Percent Control
T30 construct: purchased Eurofins DiscoverX KINOMEscan
Source text: as §2

FYN = biological target: T31, FYN (Homo sapiens, UniProt P06241); assay: KINOMEscan at 1 μM, FYN; format: binding; conditions: 1000 nM, read-out: Percent Control
T31 construct: purchased Eurofins DiscoverX KINOMEscan
Source text: as §2

EPHA4 = biological target: T32, EPHA4 (Homo sapiens, UniProt P54764); assay: KINOMEscan at 1 μM, EPHA4; format: binding; conditions: 1000 nM, read-out: Percent Control
T32 construct: purchased Eurofins DiscoverX KINOMEscan
Source text: as §2

PRKCH = biological target: T33, PRKCH (Homo sapiens, UniProt P24723); assay: KINOMEscan at 1 μM, PRKCH; format: binding; conditions: 1000 nM, read-out: Percent Control
T33 construct: purchased Eurofins DiscoverX KINOMEscan
T33 sequence (P24723 whole entry): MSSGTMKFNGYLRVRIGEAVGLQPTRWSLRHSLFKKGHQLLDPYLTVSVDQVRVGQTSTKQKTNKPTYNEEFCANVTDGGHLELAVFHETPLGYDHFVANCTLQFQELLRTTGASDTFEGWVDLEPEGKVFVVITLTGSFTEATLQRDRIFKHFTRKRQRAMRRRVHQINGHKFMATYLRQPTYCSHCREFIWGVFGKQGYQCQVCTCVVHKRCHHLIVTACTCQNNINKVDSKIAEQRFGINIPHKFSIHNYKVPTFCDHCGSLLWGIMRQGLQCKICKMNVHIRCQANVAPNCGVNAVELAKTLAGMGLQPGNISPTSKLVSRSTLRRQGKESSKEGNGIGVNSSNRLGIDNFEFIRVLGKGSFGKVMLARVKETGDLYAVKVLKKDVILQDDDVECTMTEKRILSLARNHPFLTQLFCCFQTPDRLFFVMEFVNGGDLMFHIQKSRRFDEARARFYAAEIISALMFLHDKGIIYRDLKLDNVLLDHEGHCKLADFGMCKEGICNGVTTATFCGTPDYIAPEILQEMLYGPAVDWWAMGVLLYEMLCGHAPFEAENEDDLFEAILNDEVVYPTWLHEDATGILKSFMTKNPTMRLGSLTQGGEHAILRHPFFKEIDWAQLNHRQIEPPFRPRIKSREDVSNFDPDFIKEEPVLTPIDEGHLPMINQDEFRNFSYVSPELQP
Source text: as §2

Cc1cccc(-c2cnc3occ(-c4ccc(C(=O)O)c(C5CCCC5)c4)c3c2)c1 [SGC-CAMKK2-1 (YL-36)]
remaining binding at 1 µM (BRSK1): 82% | remaining binding at 1 µM (GCN2(Kin.Dom.2,S808G)): 42% | remaining binding at 1 µM (MARK4): 100% | remaining binding at 1 µM [1]: 71% | remaining binding at 1 µM (CLK3): 100% | remaining binding at 1 µM (EPHB1): 100% | remaining binding at 1 µM (p38-gamma): 82% | remaining binding at 1 µM (PIK3CB): 100% | remaining binding at 1 µM (ASK1): 100% | remaining binding at 1 µM [2]: 90% | remaining binding at 1 µM (CDK7): 92% | remaining binding at 1 µM (DLK): 100% | remaining binding at 1 µM (ERK2): 81% | remaining binding at 1 µM (MAP3K15): 84% | remaining binding at 1 µM (CAMK1): 89% | remaining binding at 1 µM [3]: 100%

O=C(O)c1ccc(-c2coc3ncc(-c4ccccc4)cc23)cc1Cl [SGC-CAMKK2-1N (UNC-YL-83)]
remaining binding at 1 µM (CASK): 81% | remaining binding at 1 µM (RIPK1): 90% | remaining binding at 1 µM (ZAP70): 85% | remaining binding at 1 µM [4]: 83% | remaining binding at 1 µM (PRKCQ): 100% | remaining binding at 1 µM (SgK110): 69% | remaining binding at 1 µM (LIMK2): 92% | remaining binding at 1 µM (CDC2L2): 100% | remaining binding at 1 µM (EPHA1): 61% | remaining binding at 1 µM (DDR2): 100% | remaining binding at 1 µM (KIT-autoinhibited): 92% | remaining binding at 1 µM (KIT(L576P)): 66% | remaining binding at 1 µM (MAP4K4): 94% | remaining binding at 1 µM (ERBB2): 100% | remaining binding at 1 µM (FYN): 80% | remaining binding at 1 µM (EPHA4): 86% | remaining binding at 1 µM (PRKCH): 94%

Reference: article PMC9856672, “SGC-CAMKK2-1: A Chemical Probe for CAMKK2” (Cells, 2023)
